Source: patent US20030139443A1, “Use of tachykinin antagonists, including NK-1 receptor antagonists, to modify unwanted behavior in dogs, cats and horses” (priority 2001, published 2003)

What was measured:
Type in all cases: in vivo, dog
[1] = test system: Adult dogs with spontaneous anxiety to isolation and/or unfamiliar humans; experiment: Example 1: anxiety behaviors of dogs during 15-minute separation phase, compound of Formula 1 vs. placebo, double-blind crossover; conditions: for Hyperactivity Mean, Geometric Mean Time / Vocalization Mean, Geometric Mean Time: 0.1 mg/kg SC once daily, Separation Phase, vs. placebo
Experimental: To evaluate the anxiolytic effects of a compound of Formula 1 vs. placebo after seven and twenty-one days of parenteral dosing at 0.1 mg/kg SID, the following procedure was followed.
Adult dogs with spontaneous anxiety to isolation and/or unfamiliar humans were treated for twenty-one consecutive days with the compound of Formula 1 or a placebo control. Dogs were tested after seven and twenty-one days of dosing. “Day 0” was used to identify the initial day of dosing. The study was conducted using a double-blind crossover design. Treatment periods were 21 days in duration, with a 28 day washout period between treatments. Dogs were randomly assigned to treatment groups such that those receiving compound at the first replicate received placebo on the second replicate. The placebo treatments served as the negative control.
All study participants were blinded to treatment groups. The compound of Formula 1 was administered at a dose of 0.1 mg/kg. The volume of vehicle control used for the placebo treatments was equivalent to the calculated volume of test compound that would have been administered had the animal been receiving drug. All test articles were administered by subcutaneous injection once daily.
On the day of testing, each dog was placed in a cage in an isolated room for 15 minutes. A hidden observer timed any anxious behavior. Animals were tested on dosing day 6 and day 20, starting 2 hours after the dose of the day.
Abnormal anxiety behaviors were studied. Observations were made on two different anxiety behaviors during a 15-minute separation phase. These behaviors are vocalization (barking, crying, growling) and hyperactivity (jumping, pacing, circling).

[2] = test system: dogs, anxiety associated with separation and with novel sight and sound stimuli; experiment: Example 2: canine anxiety model, separation phase and stimulation phase, various dosages of compound of Formula 1
Experimental: The present invention also concerns a method for testing compounds for anxiolytic effect in dogs. The model is designed to induce separation anxiety as well as anxiety due to novel visual and auditory stimuli. To determine whether a test compound has an anxiolytic effect in dogs, separation anxiety and anxiety associated with novel sight and sound stimuli are measured both with and without administration of the test compound. In one preferred embodiment, observations are made on five different anxiety behaviors during a 15-minute separation phase and a 15-minute stimulation phase. These anxiety behaviors are vocalization (barking, crying, growling); hyperactivity (jumping, pacing, circling); destruction (chewing, pawing, digging); salivation; and tremor. […] In addition to direct observation, dogs are videotaped during testing for documentation of behaviors. In one preferred embodiment, a dog is removed from a group pen and placed in an isolation cage. A tester, positioned behind a screen out of view, starts a timer for 15 minutes and a video recorder. […] At the end of the separation phase, the timer is re-set to 15 minutes and a child-size doll mounted on a remote controlled car is driven around the pen continuously. After 10 minutes, the doll and car are driven behind the screen and a child's fazer gun with a variety of sounds is continually activated for 5 minutes. At the end of the stimulation phase, the accumulated time for each behavior is recorded and the video recorder stopped. The dog is removed from the isolation cage and returned to the group pen. Preferably, a complete cross-over study design with test compound and placebo is used. Each treatment period is 21 days in length. Study “day 0” is used to designate the initial day of dosing. Anxiety testing is conducted on study days 6 and 20 within each period. Animals are allocated to treatment group, sequence, pen and evaluation order using a randomization plan. Dogs remain within the same sequence during progression of the cross-over phases of the study so that all possible treatment orders are evenly represented. Preferably, “day 0” is staggered such that 3-6 dogs are evaluated per day. Treatment administration is adjusted on testing days such that each animal is tested at the predicted Cmax for the test compound. Anxiety testing is preferably conducted between 11 AM and 4 PM to account for time-of-day variations in behavior. Animals are fed at the conclusion of testing. A three-week washout is observed between periods. Various dosages of the compound of Formula 1 were tested to determine an optimal dose. Anxiety associated with separation and with novel sight and sound stimuli was measured. Observations are made on two different anxiety behaviors during a 15-minute separation phase and a 15-minute stimulation phase. These behaviors are vocalization (barking, crying, growling) and hyperactivity (jumping, pacing, circling). […] In addition to direct observation, dogs are videotaped during testing for documentation of behaviors. The dog is removed from a group pen and placed in an isolation cage in an adjacent room. The tester, positioned behind a screen out of view, starts a timer for 15 minutes and the video recorder. […] At the end of the separation phase, the timer is re-set to 15 minutes and a child-size doll mounted on a remote controlled car is driven around the pen continuously. After 10 minutes, the doll and car are driven behind the screen and a child's fazer gun with a variety of sounds is continually activated for 5 minutes. At the end of the stimulation phase, the accumulated time for each behavior is recorded and the video recorder stopped. The dog is removed from the isolation cage and returned to the group pen.

[3] = test system: Adult dogs, separation behavior; experiment: Example 3: behavior scores in dogs after ten consecutive oral doses of compound of Formula 2 vs. placebo, cross-over; conditions: 5 mg/kg oral BID, 10 doses
Experimental: Adult dogs received ten consecutive oral doses of a compound of Formula 2 at 5 mg/kg BID or placebo in a cross-over design and effects on behavior were determined beginning one-hour post-dose.
Appropriate amounts of the compound of Formula 2 were weighed and placed in capsules. Capsules were back-filled with dextrose.
Capsules were administered by placing them in the back of the throat and allowing the dogs to swallow. On the day of behavior testing, dogs were fasting at dosing.
Dogs were divided equally into two treatment groups. Treatment Group 1 received 10 consecutive oral doses of the compound of Formula 2 BID at 5 mg/kg and Treatment Group 2 received 10 consecutive oral dextrose placebos BID. At the conclusion of the first half of the study, the protocol was repeated and dogs in Treatment Group 1 received 10 consecutive oral dextrose placebos BID and dogs in Treatment Group 2 received 10 consecutive oral doses of the compound of Formula 2 BID at 5 mg/kg.
Dogs began compound dosing at 1830 and continued for 10 consecutive BID doses. The final dose (dose #10) occurred the morning of testing, one hour prior to the start. Dogs were tested in three 15-minute testing phases in which behavior was scored every 5 minutes. Dogs were videotaped during the testing period.

[4] = 0.03 mg/kg, Separation, Day 6, vs. Day −1
[5] = 0.03 mg/kg, Separation, Day 20, vs. Day −1
[6] = 0.03 mg/kg, Stimulation, Day 6, vs. Day −1
[7] = 0.03 mg/kg, Stimulation, Day 20, vs. Day −1
[8] = 0.1 mg/kg, Separation Phase, Day 6, vs. placebo
[9] = 0.1 mg/kg, Separation Phase, Day 20, vs. placebo
[10] = 0.1 mg/kg, Separation, Day 6, vs. Day −1
[11] = 0.1 mg/kg, Separation, Day 20, vs. Day −1
[12] = 0.1 mg/kg, Stimulation Phase, Day 6, vs. placebo
[13] = 0.1 mg/kg, Stimulation Phase, Day 20, vs. placebo
[14] = 0.1 mg/kg, Stimulation, Day 6, vs. Day −1
[15] = 0.1 mg/kg, Stimulation, Day 20, vs. Day −1
[16] = 0.3 mg/kg, Separation, Day 6, vs. Day −1
[17] = 0.3 mg/kg, Separation, Day 20, vs. Day −1
[18] = 0.3 mg/kg, Stimulation, Day 6, vs. Day −1
[19] = 0.3 mg/kg, Stimulation, Day 20, vs. Day −1
[20] = 1 mg/kg, Separation Phase, Day 6, vs. placebo
[21] = 1 mg/kg, Separation Phase, Day 20, vs. placebo
[22] = 1 mg/kg, Stimulation Phase, Day 6, vs. placebo
[23] = 1 mg/kg, Stimulation Phase, Day 20, vs. placebo

COc1ccc(C(C)(C)C)cc1CN[C@H]1C2CCN(CC2)[C@H]1C(c1ccccc1)c1ccccc1 [Compound of Formula 1, (2S.3S) (2-Benzhydryl-1-aza-bicyclo[2.2.2]oct-3-yl)-(5-tert-butyl-2-methoxy-benzyl)-amine]
effectiveness at treating vocalization and hyperactivity resulting from separation ([1]; 0.1 mg/kg SC, compared with placebo): more effective than placebo
Hyperactivity Mean, Geometric Mean Time [2, 4]: 19.4 s
Vocalization Mean, Geometric Mean Time [2, 4]: 10.6 s
Hyperactivity Mean, Geometric Mean Time [2, 5]: 20.1 s
Vocalization Mean, Geometric Mean Time [2, 5]: 12.1 s
Hyperactivity Mean, Geometric Mean Time [2, 6]: 38.6 s
Vocalization Mean, Geometric Mean Time [2, 6]: 24.5 s
Hyperactivity Mean, Geometric Mean Time [2, 7]: 28.2 s
Vocalization Mean, Geometric Mean Time [2, 7]: 35.6 s
Hyperactivity Mean, Geometric Mean Time [2, 8]: 24.1 s
Vocalization Mean, Geometric Mean Time [2, 8]: 29.0 s
Hyperactivity Mean, Geometric Mean Time [2, 9]: 19.1 s
Vocalization Mean, Geometric Mean Time [2, 9]: 25.5 s
Hyperactivity Mean, Geometric Mean Time [2, 10]: 24.7 s
Vocalization Mean, Geometric Mean Time [2, 10]: 15.5 s
Hyperactivity Mean, Geometric Mean Time [2, 11]: 14.8 s
Vocalization Mean, Geometric Mean Time [2, 11]: 9.1 s
Hyperactivity Mean, Geometric Mean Time [2, 12]: 46.7 s
Vocalization Mean, Geometric Mean Time [2, 12]: 35.3 s
Hyperactivity Mean, Geometric Mean Time [2, 13]: 51.2 s
Vocalization Mean, Geometric Mean Time [2, 13]: 26.4 s
Hyperactivity Mean, Geometric Mean Time [2, 14]: 48.8 s
Vocalization Mean, Geometric Mean Time [2, 14]: 36.8 s
Hyperactivity Mean, Geometric Mean Time [2, 15]: 28.4 s
Vocalization Mean, Geometric Mean Time [2, 15]: 24.7 s
Hyperactivity Mean, Geometric Mean Time [2, 16]: 49.7 s
Vocalization Mean, Geometric Mean Time [2, 16]: 20.9 s
Hyperactivity Mean, Geometric Mean Time [2, 17]: 39.1 s
Vocalization Mean, Geometric Mean Time [2, 17]: 18.2 s
Hyperactivity Mean, Geometric Mean Time [2, 18]: 43.1 s
Vocalization Mean, Geometric Mean Time [2, 18]: 15.9 s
Hyperactivity Mean, Geometric Mean Time [2, 19]: 41.9 s
Vocalization Mean, Geometric Mean Time [2, 19]: 19.2 s
Hyperactivity Mean, Geometric Mean Time [2, 20]: 23.3 s
Vocalization Mean, Geometric Mean Time [2, 20]: 5.8 s
Hyperactivity Mean, Geometric Mean Time [2, 21]: 16.8 s
Vocalization Mean, Geometric Mean Time [2, 21]: 6.9 s
Hyperactivity Mean, Geometric Mean Time [2, 22]: 22.7 s
Vocalization Mean, Geometric Mean Time [2, 22]: 6.5 s
Hyperactivity Mean, Geometric Mean Time [2, 23]: 36.0 s
Vocalization Mean, Geometric Mean Time [2, 23]: 7.4 s
most efficacious dosage in dogs among those dosages tested ([2]; SC, dosages tested 0.03, 0.1, 0.3, 1 mg/kg): 0.1 mg/kg

COc1ccc(OC(F)(F)F)cc1CN[C@H]1CCCN[C@H]1c1ccccc1 [Compound of Formula 2]
Hyperactivity Mean, Geometric Mean Time ([1]; Day 6): 24.1 s
Vocalization Mean, Geometric Mean Time ([1]; Day 6): 29.0 s
Hyperactivity Mean, Geometric Mean Time ([1]; Day 20): 19.1 s
Vocalization Mean, Geometric Mean Time ([1]; Day 20): 25.5 s
Separation Hyperactivity 0-15 min, behavior score as estimated duration of time ([3]; Dog ID 70954): 2 s
Separation Vocalization 0-15 min, behavior score as estimated duration of time ([3]; Dog ID 70954): 0 s
Separation Hyperactivity 0-15 min, behavior score as estimated duration of time ([3]; Dog ID 215155): 2 s
Separation Vocalization 0-15 min, behavior score as estimated duration of time ([3]; Dog ID 215155): 12 s
Separation Hyperactivity 0-15 min, behavior score as estimated duration of time ([3]; Dog ID 219622): 30 s
Separation Vocalization 0-15 min, behavior score as estimated duration of time ([3]; Dog ID 219622): 22 s
Separation Hyperactivity 0-15 min, behavior score as estimated duration of time ([3]; Dog ID 227641): 2 s
Separation Vocalization 0-15 min, behavior score as estimated duration of time ([3]; Dog ID 227641): 2 s
Separation Hyperactivity 0-15 min, behavior score as estimated duration of time ([3]; Dog ID 234923): 2 s
Separation Vocalization 0-15 min, behavior score as estimated duration of time ([3]; Dog ID 234923): 0 s
Separation Hyperactivity 0-15 min, behavior score as estimated duration of time ([3]; Dog ID 240893): 6 s
Separation Vocalization 0-15 min, behavior score as estimated duration of time ([3]; Dog ID 240893): 0 s
Separation Hyperactivity 0-15 min, behavior score as estimated duration of time ([3]; Dog ID 2943450): 18 s
Separation Vocalization 0-15 min, behavior score as estimated duration of time ([3]; Dog ID 2943450): 30 s
Separation Hyperactivity 0-15 min, behavior score as estimated duration of time ([3]; Dog ID HIHMFU): 12 s
Separation Vocalization 0-15 min, behavior score as estimated duration of time ([3]; Dog ID HIHMFU): 0 s
Separation Hyperactivity 0-15 min, behavior score as estimated duration of time ([3]; Mean of 8 dogs): 9.25 s
Separation Vocalization 0-15 min, behavior score as estimated duration of time ([3]; Mean of 8 dogs): 8.25 s
